The results in this text go back to patent publication US20260207602A1, “EGFR INHIBITORS” (Blueprint Medicines Corporation, priority 2022, published 2026).

Some results are limits rather than exact numbers.

One assay has as its target T1, EGFR L858R (Homo sapiens, UniProt P00533, L858R).
T1 construct: purchased SignalChem E10-122BG
Briefly: Biochemical EGFR inhibition assay (Caliper mobility shift), EGFR L858R. Conditions: biochemical Caliper mobility shift assay, EGFR L858R enzyme; read-out: Enz EGFR L858R IC50. In short, it runs like this:
(§1)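 Apparent IC50 values come from Caliper electrophoretic separation of phosphorylated and unphosphorylated 5-FAM peptide (2.5 μM). ATP was either 1.0 mM or at Km; HEPES pH 7.5 buffer with MgCl2, DTT, 1% DMSO. Reactions ran at 25 °C until 10–20% phosphorylated, then EDTA quench.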

The next assay deals with T2, EGFR (d746-750) (Homo sapiens, UniProt P00533, DEL746-750).
T2 construct: purchased SignalChem E10-122JG
T2 sequence (P00533 with tags, fused parts or gaps DEL746-750 limits assumed): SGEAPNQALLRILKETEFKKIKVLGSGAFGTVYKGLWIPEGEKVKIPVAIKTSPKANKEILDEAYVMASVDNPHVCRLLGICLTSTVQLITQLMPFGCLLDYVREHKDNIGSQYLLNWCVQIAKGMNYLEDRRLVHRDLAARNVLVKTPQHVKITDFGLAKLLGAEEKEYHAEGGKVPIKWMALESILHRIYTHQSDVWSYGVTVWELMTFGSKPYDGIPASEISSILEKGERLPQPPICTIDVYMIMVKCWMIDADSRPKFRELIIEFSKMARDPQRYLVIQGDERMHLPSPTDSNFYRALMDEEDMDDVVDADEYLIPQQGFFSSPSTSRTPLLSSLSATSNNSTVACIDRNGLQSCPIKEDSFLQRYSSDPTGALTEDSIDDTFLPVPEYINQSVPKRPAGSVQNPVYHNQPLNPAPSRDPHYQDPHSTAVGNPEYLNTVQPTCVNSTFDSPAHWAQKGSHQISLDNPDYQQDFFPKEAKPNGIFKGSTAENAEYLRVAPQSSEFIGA
Briefly: Biochemical EGFR inhibition assay (Caliper mobility shift), EGFR (d746-750). Conditions: biochemical Caliper mobility shift assay, EGFR Exon 19-del enzyme; read-out: Enz EGFR Exon 19-del IC50. In short, it runs like this:
as §1

Assay [1] concerns the target intracellular phosphorylation of EGFR (Tyr1068) in PC-9 cells (Homo sapiens, UniProt P00533, DEL746-750). Briefly: PC-9 pEGFR AlphaLISA assay. The class given is cell-based. Conditions: 4 hours incubation, read-out: Phos EGFR PC9 IC50. In short, it runs like this: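 PC-9 cells (EGFR del746-750) in phenol-free DMEM/10% FBS, adhered overnight, then exposed to 10-point 4-fold compound dilutions for 4 h at 37 °C. Lysates assayed for pEGFR Tyr1068 by AlphaLISA SureFire Ultra; IC50 from percent pEGFR inhibition vs log concentration.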
(In Alpha technology, singlet oxygen from a donor bead excites a nearby acceptor bead.)

intracellular phosphorylation of EGFR (Tyr1068) in PC-9 cells, sequence (P00533 with tags, fused parts or gaps DEL746-750): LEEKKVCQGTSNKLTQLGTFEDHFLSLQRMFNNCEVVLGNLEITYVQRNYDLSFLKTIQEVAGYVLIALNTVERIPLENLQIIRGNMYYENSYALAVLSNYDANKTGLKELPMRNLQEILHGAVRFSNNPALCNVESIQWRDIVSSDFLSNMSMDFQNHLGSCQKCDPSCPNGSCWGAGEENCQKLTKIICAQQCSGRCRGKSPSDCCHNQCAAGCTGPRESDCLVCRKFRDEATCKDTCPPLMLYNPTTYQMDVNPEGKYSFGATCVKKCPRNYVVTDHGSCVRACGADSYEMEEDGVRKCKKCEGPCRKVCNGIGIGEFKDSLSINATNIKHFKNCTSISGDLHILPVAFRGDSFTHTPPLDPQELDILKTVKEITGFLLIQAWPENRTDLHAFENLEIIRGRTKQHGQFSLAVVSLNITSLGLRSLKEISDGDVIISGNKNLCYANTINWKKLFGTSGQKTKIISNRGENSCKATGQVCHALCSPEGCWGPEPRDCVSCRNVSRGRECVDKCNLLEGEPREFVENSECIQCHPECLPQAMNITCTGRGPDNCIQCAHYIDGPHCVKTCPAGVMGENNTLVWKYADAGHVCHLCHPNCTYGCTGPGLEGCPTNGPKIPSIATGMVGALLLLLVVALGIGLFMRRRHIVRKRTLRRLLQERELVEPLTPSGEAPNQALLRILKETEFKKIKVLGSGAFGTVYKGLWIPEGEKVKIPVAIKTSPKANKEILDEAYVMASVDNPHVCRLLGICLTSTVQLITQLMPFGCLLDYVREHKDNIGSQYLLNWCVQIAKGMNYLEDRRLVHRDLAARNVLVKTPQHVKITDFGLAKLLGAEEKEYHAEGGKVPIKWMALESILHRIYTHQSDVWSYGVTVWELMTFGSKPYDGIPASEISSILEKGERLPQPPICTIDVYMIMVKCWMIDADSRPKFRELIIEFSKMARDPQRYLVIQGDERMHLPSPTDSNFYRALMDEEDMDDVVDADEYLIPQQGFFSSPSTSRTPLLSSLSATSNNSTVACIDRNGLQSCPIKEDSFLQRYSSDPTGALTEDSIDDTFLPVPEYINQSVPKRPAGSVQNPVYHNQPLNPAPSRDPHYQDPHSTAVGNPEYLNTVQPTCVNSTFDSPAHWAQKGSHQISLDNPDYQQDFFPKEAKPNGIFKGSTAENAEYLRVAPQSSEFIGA
T1 sequence (P00533 25-1210 L858R): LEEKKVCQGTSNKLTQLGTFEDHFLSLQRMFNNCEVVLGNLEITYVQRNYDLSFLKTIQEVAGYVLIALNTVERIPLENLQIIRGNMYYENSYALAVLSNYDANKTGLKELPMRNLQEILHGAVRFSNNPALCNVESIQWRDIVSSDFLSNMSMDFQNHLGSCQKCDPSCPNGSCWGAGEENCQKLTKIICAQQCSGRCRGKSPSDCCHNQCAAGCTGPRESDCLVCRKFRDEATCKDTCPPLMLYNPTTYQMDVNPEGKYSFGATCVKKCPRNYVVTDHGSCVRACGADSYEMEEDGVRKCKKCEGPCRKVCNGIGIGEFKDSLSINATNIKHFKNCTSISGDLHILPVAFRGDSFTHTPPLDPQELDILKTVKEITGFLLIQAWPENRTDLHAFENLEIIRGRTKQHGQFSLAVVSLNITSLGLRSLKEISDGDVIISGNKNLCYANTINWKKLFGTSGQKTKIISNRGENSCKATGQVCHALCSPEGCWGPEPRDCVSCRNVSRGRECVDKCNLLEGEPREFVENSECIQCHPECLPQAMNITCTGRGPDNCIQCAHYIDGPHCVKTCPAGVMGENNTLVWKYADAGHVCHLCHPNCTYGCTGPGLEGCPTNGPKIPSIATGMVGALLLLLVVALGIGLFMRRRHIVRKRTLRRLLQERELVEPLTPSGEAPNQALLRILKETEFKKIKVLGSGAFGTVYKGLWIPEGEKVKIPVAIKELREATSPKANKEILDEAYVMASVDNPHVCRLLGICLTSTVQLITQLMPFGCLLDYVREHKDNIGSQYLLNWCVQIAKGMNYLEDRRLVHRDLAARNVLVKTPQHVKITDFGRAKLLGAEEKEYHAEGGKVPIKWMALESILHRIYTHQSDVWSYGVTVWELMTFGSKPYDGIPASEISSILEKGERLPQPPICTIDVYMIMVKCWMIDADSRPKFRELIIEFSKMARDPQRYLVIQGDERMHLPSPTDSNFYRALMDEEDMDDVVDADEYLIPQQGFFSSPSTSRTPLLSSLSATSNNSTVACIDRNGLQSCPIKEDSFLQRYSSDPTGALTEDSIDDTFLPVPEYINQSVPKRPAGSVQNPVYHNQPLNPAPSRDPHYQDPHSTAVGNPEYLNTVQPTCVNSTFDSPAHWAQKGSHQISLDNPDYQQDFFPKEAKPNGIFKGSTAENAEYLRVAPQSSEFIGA

Usually IC50 stands for the concentration needed to halve the response being measured. On to `CN1CCN(CC#Cc2cc(OC3CCOCC3)c3c(Nc4ccc5ncsc5c4F)ncnc3c2)CC1` [Example A24, 7-fluoro-N-(7-(3-(4-methylpiperazin-1-yl)prop-1-yn-1-yl)-5-((tetrahydro-2H-pyran-4-yl)oxy)quinazolin-4-yl)benzo[d]thiazol-6-amine], for which the IC50 at EGFR L858R was greater than 50.1 nM; on EGFR (d746-750), 10.1 to 50 nM; in assay [1], 10.1 to 50 nM.

Take `CN(C)CCOc1cc(-c2cnn(C)c2)cc2ncnc(Nc3ccc4ncsc4c3)c12` [Example A60, N-(5-(2-(dimethylamino)ethoxy)-7-(1-methyl-1H-pyrazol-4-yl)quinazolin-4-yl)benzo[d]thiazol-6-amine]: the figures for the IC50 (at EGFR L858R; at EGFR (d746-750); in assay [1]) were 10.1 to 50 nM, no more than 10 nM and 10.1 to 50 nM, respectively.

On to `CN1C[C@H](F)[C@H](Oc2cc(-c3cnn(C)c3)cc3ncnc(Nc4ccc5ncsc5c4)c23)C1` (single isomer, unassigned) [Example 380], for which the values for the IC50 (on EGFR L858R; on EGFR (d746-750); in assay [1]) were no more than 10 nM, no more than 10 nM and 10.1 to 50 nM, respectively.

Consider `COc1nn(C)cc1-c1cc(O[C@@H]2CCNC[C@H]2F)c2c(Nc3ccc4ncsc4c3F)ncnc2c1` [Example 350, 7-fluoro-N-(5-(((3R,4R)-3-fluoropiperidin-4-yl)oxy)-7-(3-methoxy-1-methyl-1H-pyrazol-4-yl)quinazolin-4-yl)benzo[d]thiazol-6-amine], for which the IC50 (at EGFR L858R; on EGFR (d746-750); in assay [1]) was no more than 10 nM in each case.

For `CC(Oc1cc(-c2cnn(C)c2)cc2ncnc(Nc3ccc4ncsc4c3F)c12)C(=O)N(C)C` (stereo not drawn) [Example 278, 2-((4-((7-fluorobenzo[d]thiazol-6-yl)amino)-7-(1-methyl-1H-pyrazol-4-yl)quinazolin-5-yl)oxy)-N,N-dimethylpropanamide], the IC50 (at EGFR L858R; at EGFR (d746-750); in assay [1]) was no more than 10 nM each time.

As to `Cn1cc(-c2cc(OCC(=O)N3CC4(COC4)C3)c3c(Nc4ccc5ncsc5c4F)ncnc3c2)cn1` [Example 277, 2-((4-((7-fluorobenzo[d]thiazol-6-yl)amino)-7-(1-methyl-1H-pyrazol-4-yl)quinazolin-5-yl)oxy)-1-(2-oxa-6-azaspiro[3.3]heptan-6-yl)ethan-1-one], the half-maximal inhibitory concentration (IC50) (on EGFR L858R; on EGFR (d746-750); in assay [1]) was no more than 10 nM in each case.

Take `COc1cc2ncnc(Nc3ccc4ncsc4c3)c2cc1NC(=O)C1CN(C)C1` [Example 402, N-(4-(benzo[d]thiazol-6-ylamino)-7-methoxyquinazolin-6-yl)-1-methylazetidine-3-carboxamide]: the IC50 was greater than 50.1 nM at EGFR L858R, 10.1 to 50 nM on EGFR (d746-750) and 10.1 to 50 nM in assay [1].

In the case of `Cn1cc(-c2cc(O[C@H]3CCNC[C@@H]3F)c3c(Nc4ccc5ncsc5c4)ncnc3c2)c(OC(F)F)n1` (racemic) [Example 370, N-(7-(3-(difluoromethoxy)-1-methyl-1H-pyrazol-4-yl)-5-(((3S,4S)-3-fluoropiperidin-4-yl)oxy)quinazolin-4-yl)benzo[d]thiazol-6-amine], the IC50 (at EGFR L858R; at EGFR (d746-750); in assay [1]) was no more than 10 nM each time.

Turning to `COc1cn(C)nc1-c1cc(OC2CCN(C)CC2)c2c(Nc3ccc4ncsc4c3F)ncnc2c1` [Example 319, 7-fluoro-N-(7-(4-methoxy-1-methyl-1H-pyrazol-3-yl)-5-((1-methylpiperidin-4-yl)oxy)quinazolin-4-yl)benzo[d]thiazol-6-amine], the IC50 at EGFR L858R is 10.1 to 50 nM; on EGFR (d746-750) it was no more than 10 nM; in assay [1], no more than 10 nM.

On to `CN1CCC(Oc2cc(-c3cnn(C)c3)cc3ncnc(Nc4ccc5ncsc5c4)c23)C(F)(F)C1` (stereo not drawn) [Example 2, N-(5-((3,3-difluoro-1-methylpiperidin-4-yl)oxy)-7-(1-methyl-1H-pyrazol-4-yl)quinazolin-4-yl)benzo[d]thiazol-6-amine], for which the IC50 (at EGFR L858R; on EGFR (d746-750); in assay [1]) was no more than 10 nM in each case.

As for `CC(C)N1CC[C@@H](Oc2cc(-c3cnn(C)c3)cc3ncnc(Nc4ccc5ncsc5c4)c23)C1=O` (single isomer, unassigned) [Example 63], the IC50 (at EGFR L858R; at EGFR (d746-750); in assay [1]) was no more than 10 nM in each case.

`C[C@@H](Oc1cc(-c2cnn(C)c2)cc2ncnc(Nc3ccc4ncsc4c3F)c12)C1CCOCC1` (single isomer, unassigned) [Example 110]: the IC50 at EGFR L858R is no more than 10 nM; on EGFR (d746-750), no more than 10 nM; in assay [1] it was 10.1 to 50 nM.

Take `C[C@@H](Oc1cc(-c2cnn(C)c2)cc2ncnc(Nc3ccc4ncsc4c3)c12)[C@H]1CNCCO1` (single isomer, unassigned) [Example 207]: the IC50 (on EGFR L858R; at EGFR (d746-750); in assay [1]) was no more than 10 nM each time.

With `Cn1cc(-c2cc(O[C@H]3COC[C@@H]3O)c3c(Nc4ccc5ncsc5c4)ncnc3c2)cn1` (single isomer, unassigned) [Example A30], the IC50 at EGFR L858R is no more than 10 nM; on EGFR (d746-750), no more than 10 nM; in assay [1] it was greater than 50.1 nM.

For the molecule `COCCOc1cc(O[C@H](C)C2COC2)c2c(Nc3ccc4ncsc4c3F)ncnc2c1` (single isomer, unassigned) [Example 85], the IC50 at EGFR L858R was no more than 10 nM; on EGFR (d746-750) it was no more than 10 nM; in assay [1], 10.1 to 50 nM.

As for `C[C@@H](Oc1cc(N2CCN(C)CC2)cc2ncnc(Nc3ccc4ncsc4c3F)c12)[C@H]1CCCO1` [Example 115, 7-fluoro-N-(7-(4-methylpiperazin-1-yl)-5-((R)-1-((R)-tetrahydrofuran-2-yl)ethoxy)quinazolin-4-yl)benzo[d]thiazol-6-amine], the IC50 (on EGFR L858R; at EGFR (d746-750); in assay [1]) was no more than 10 nM each time.

Take `C[C@@H](CN(C)C)Oc1cc(N2CCN(C)CC2)cc2ncnc(Nc3ccc4ncsc4c3)c12` (single isomer, unassigned) [Example 117]: the IC50 (on EGFR L858R; on EGFR (d746-750); in assay [1]) was 10.1 to 50 nM throughout.

With `CC(Oc1cc(N2CCN(C)C3CC32)cc2ncnc(Nc3ccc4ncsc4c3)c12)C1COC1` [Example 300, N-(7-((1R,6S)-5-methyl-2,5-diazabicyclo[4.1.0]heptan-2-yl)-5-((R)-1-(oxetan-3-yl)ethoxy)quinazolin-4-yl)benzo[d]thiazol-6-amine, OR N-(7-((1S,6R)-5-methyl-2,5-diazabicyclo[4.1.0]heptan-2-yl)-5-((R)-1-(oxetan-3-yl)ethoxy)quinazolin-4-yl)benzo[d]thiazol-6-amine], the IC50 is 10.1 to 50 nM on EGFR L858R, no more than 10 nM at EGFR (d746-750) and no more than 10 nM in assay [1].

For the molecule `C[C@@H](Oc1c(F)c(-c2cnn(C)c2)cc2ncnc(Nc3ccc4ncsc4c3F)c12)C1COC1` (single isomer, unassigned) [Example A28], the IC50 at EGFR L858R is 10.1 to 50 nM; at EGFR (d746-750) it was no more than 10 nM; in assay [1], greater than 50.1 nM.

For `Cn1cc(-c2cc(O[C@H]3CCCNC3)c3c(Nc4ccc5ncsc5c4)ncnc3c2)cn1` [Example 134, (S)-N-(7-(1-methyl-1H-pyrazol-4-yl)-5-(piperidin-3-yloxy)quinazolin-4-yl)benzo[d]thiazol-6-amine], the figures for the IC50 (on EGFR L858R; on EGFR (d746-750); in assay [1]) were no more than 10 nM, no more than 10 nM and 10.1 to 50 nM, respectively.

Consider `CN1CC[C@H](Oc2cc(-c3cnn(C)c3)cc3ncnc(Nc4ccc5ncsc5c4F)c23)C1=O` (single isomer, unassigned) [Example 73], for which the IC50 is no more than 10 nM at EGFR L858R, no more than 10 nM on EGFR (d746-750) and 10.1 to 50 nM in assay [1].

Regarding `CC(Oc1cc(-c2cn(C)nc2OC(F)F)cc2ncnc(Nc3ccc4ncsc4c3)c12)C1COC1` (single isomer, unassigned) [Example 173], the IC50 (on EGFR L858R; on EGFR (d746-750); in assay [1]) was no more than 10 nM throughout.

As to `Cn1cc(-c2cc(OCC3CCOC3)c3c(Nc4ccc5ncsc5c4)ncnc3c2)cn1` (stereo not drawn) [Example 413, N-(7-(1-methyl-1H-pyrazol-4-yl)-5-((tetrahydrofuran-3-yl)methoxy)quinazolin-4-yl)benzo[d]thiazol-6-amine], the IC50 on EGFR L858R was no more than 10 nM; on EGFR (d746-750), no more than 10 nM; in assay [1], 10.1 to 50 nM.

Turning to `C[C@@H](Oc1cc(-c2cnn(C)c2)cc2ncnc(Nc3ccc4ncsc4c3F)c12)C1CN(C)C1` (single isomer, unassigned) [Example 388], the values for the IC50 (at EGFR L858R; at EGFR (d746-750); in assay [1]) were greater than 50.1 nM, 10.1 to 50 nM and greater than 50.1 nM, respectively.

Regarding `C[C@H]1COCC[C@H]1Oc1cc(-c2cnn(C)c2)cc2ncnc(Nc3ccc4ncsc4c3)c12` (racemic) [Example 25, cis-racemic N-(7-(1-methyl-1H-pyrazol-4-yl)-5-(((3S,4R)-3-methyltetrahydro-2H-pyran-4-yl)oxy)quinazolin-4-yl)benzo[d]thiazol-6-amine], the IC50 at EGFR L858R is no more than 10 nM; at EGFR (d746-750), no more than 10 nM; in assay [1], 10.1 to 50 nM.

As to `C[C@@H](Oc1cc(N2CC3CC(C2)O3)cc2ncnc(Nc3ccc4ncsc4c3F)c12)C1COC1` [Example 180, N-(7-(6-oxa-3-azabicyclo[3.1.1]heptan-3-yl)-5-((R)-1-(oxetan-3-yl)ethoxy)quinazolin-4-yl)-7-fluorobenzo[d]thiazol-6-amine], the IC50 (on EGFR L858R; at EGFR (d746-750); in assay [1]) was no more than 10 nM each time.
